Article PMC6934184, “Selective DNA-PKcs inhibition extends the therapeutic index of localized radiotherapy and chemotherapy” (The Journal of Clinical Investigation, 2019)

Molecular target: T1, NTRK3 (TRKC) (Homo sapiens, UniProt Q16288)
T1 construct: purchased Thermo Fisher Scientific (Life Technologies) SelectScreen
Test: SelectScreen Z'LYTE
Assay type: biochemical
Outline: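 SelectScreen broad panel; activity (Z'LYTE, Adapta) plus binding formats. ATP: Km app for CSF1R Z'LYTE; 10 for CAMK1 Adapta. Readout = % per kinase.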

T1 sequence (Q16288 32-839): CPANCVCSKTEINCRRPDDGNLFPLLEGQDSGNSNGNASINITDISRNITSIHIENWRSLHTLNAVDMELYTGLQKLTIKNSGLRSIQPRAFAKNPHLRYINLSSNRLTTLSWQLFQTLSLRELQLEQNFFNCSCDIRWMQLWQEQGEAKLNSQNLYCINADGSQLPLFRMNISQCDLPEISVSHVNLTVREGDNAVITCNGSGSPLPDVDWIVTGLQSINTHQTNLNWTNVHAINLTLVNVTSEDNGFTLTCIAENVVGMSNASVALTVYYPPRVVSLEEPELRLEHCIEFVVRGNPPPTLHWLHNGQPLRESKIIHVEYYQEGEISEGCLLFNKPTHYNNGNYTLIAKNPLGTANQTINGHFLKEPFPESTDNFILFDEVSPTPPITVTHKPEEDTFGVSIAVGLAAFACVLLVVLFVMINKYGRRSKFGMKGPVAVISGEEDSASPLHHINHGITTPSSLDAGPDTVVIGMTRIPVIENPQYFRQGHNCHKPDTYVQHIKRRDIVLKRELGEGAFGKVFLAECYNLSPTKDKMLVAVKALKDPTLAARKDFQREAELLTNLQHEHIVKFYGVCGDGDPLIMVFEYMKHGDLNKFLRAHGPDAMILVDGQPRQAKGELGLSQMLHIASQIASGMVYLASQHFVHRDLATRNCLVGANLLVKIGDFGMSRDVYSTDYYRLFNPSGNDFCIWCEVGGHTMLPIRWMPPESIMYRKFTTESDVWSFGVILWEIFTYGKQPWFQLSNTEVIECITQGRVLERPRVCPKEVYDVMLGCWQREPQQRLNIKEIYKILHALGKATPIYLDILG

CN(C(=O)CN1CCOCC1)c1ccc2sc3c(-c4cccc5c(=O)cc(N6CC7CCC(C6)O7)oc45)cccc3c2c1 [NU5455]
inhibition at 1 µM: 0.4%
